This is an account of results in ChEMBL document CHEMBL1201862, “PubChem BioAssay data set” (2004).

Some test systems named below: K562; A498; CCRF-CEM; CAKI-1; ACHN; HCT-116; UACC-257; SF-539; HCC 2998; HOP-92; HCT-15; RXF 393; UO-31.
Common to all, as to experiment: growth of human tumour cells (NCI), 48 h

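Exposure lasted 48 hours, with cells grown in 96-well plates and compounds tested at five concentrations. Abbreviation: GI50, concentration required for 50% inhibition of growth.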 Calls of active or inactive are those of the source. No stated cut-off is given here; in the data, active = GI50 up to about 1.1 µM and inactive = higher.

Regarding `COc1ccccc1NC(=O)CSC(N)=O`, the GI50 is 46 µM (inactive) in the assay with K562; > 100 µM (inactive) in the assay on A498; 12.9 µM (inactive) in the assay on CCRF-CEM; 33.6 µM (inactive) in the assay on CAKI-1; 42.3 µM (inactive) in the assay on ACHN; 18.8 µM (inactive) with HCT-116. Further, the GI50 was 62.2 µM (inactive) with UACC-257; 34 µM (inactive) in the assay on SF-539; > 100 µM (inactive) in the assay on HCC 2998; > 100 µM (inactive) in the assay on HOP-92; 42.8 µM in the assay on HCT-15.

With `N#CN1CCC=C(c2cc3ccccc3[nH]2)C1`, the GI50 in the assay on K562 was 421 µM (inactive); in the assay with CCRF-CEM it was 188 µM (inactive); in the assay on CAKI-1, 245 µM (inactive); in the assay with ACHN, 272 µM (inactive); with HCT-116, 285 µM (inactive); in the assay on RXF 393, 256 µM (inactive). Moreover, the GI50 with UACC-257 is 199 µM (inactive); in the assay with SF-539, > 448 µM (inactive); in the assay with HCC 2998, 185 µM (inactive); in the assay on HOP-92, 146 µM (inactive); with HCT-15 it was 370 µM.

For the molecule `O=S(=O)(c1ccccc1)c1nccs1`, the GI50 with K562, in the assay with A498, in the assay on UO-31, with CAKI-1, with ACHN and in the assay with HCT-116 was > 100 µM (inactive) throughout. Also, the GI50 is > 100 µM (inactive) in the assay with UACC-257, > 100 µM (inactive) in the assay with SF-539, > 100 µM (inactive) with HCC 2998 and over 100 µM in the assay on HCT-15.

Turning to `Cc1cccc(Cl)c1NC(N)=S`, the GI50 was 28.3 µM (inactive) in the assay with K562; 66.7 µM (inactive) with A498; 35.6 µM (inactive) with CCRF-CEM; 51.6 µM (inactive) with UO-31; 43.7 µM (inactive) in the assay with CAKI-1; 27.5 µM (inactive) in the assay with ACHN. The GI50 in the assay on HCT-116 was 17.4 µM (inactive); in the assay on UACC-257 it was > 100 µM (inactive); with SF-539, 33.7 µM (inactive); with HCC 2998, > 100 µM (inactive); with HOP-92 it was 35.4 µM (inactive); in the assay with HCT-15, 18.4 µM.

For `O=C1N[C@@H]2CCCC[C@@H]2C12CCCCC2`, the GI50 with K562, with A498, in the assay on CCRF-CEM, in the assay on UO-31, in the assay with ACHN and with HCT-116 was > 100 µM (inactive) in each case. The GI50 with RXF 393, with UACC-257, with SF-539 and in the assay with HCC 2998 was > 100 µM (inactive) each time.

In the case of `NC(=S)N/N=C(\CC1OC(=O)c2ccccc21)c1ccc(Cl)cc1` (stereo not drawn), the GI50 in the assay on K562 is 84.1 µM (inactive); in the assay with UO-31 it was 24.9 µM (inactive); in the assay on CAKI-1 it was 36.3 µM (inactive); in the assay on ACHN, 56.1 µM (inactive); with HCT-116, 24.4 µM (inactive); with RXF 393, 25.1 µM (inactive). Moreover, the GI50 was 46.7 µM (inactive) in the assay with UACC-257; 20.8 µM (inactive) in the assay on SF-539; 23.9 µM (inactive) in the assay on HCC 2998; 23.1 µM (inactive) in the assay with HOP-92; 39.8 µM with HCT-15.

Regarding `NC1(C(=O)O)CCC(C(=O)O)CC1` (stereo not drawn), the GI50 in the assay with K562, in the assay with A498, in the assay on CCRF-CEM, in the assay with UO-31, with CAKI-1 and in the assay with ACHN was > 100 µM (inactive) throughout. Moreover, the GI50 with HCT-116, in the assay on RXF 393, in the assay on UACC-257, with SF-539, in the assay with HCC 2998 and with HOP-92 was > 100 µM (inactive) throughout.

With `CNS(=O)(=O)NNS(=O)(=O)c1ccc(C)cc1`, the GI50 in the assay on K562, with A498, in the assay with CCRF-CEM, with UO-31, in the assay on CAKI-1 and in the assay with ACHN was > 100 µM (inactive) each time. Further, the GI50 with HCT-116, with RXF 393, with UACC-257, in the assay on SF-539, in the assay on HCC 2998 and in the assay with HOP-92 was > 100 µM (inactive) in each case.

Take `Cc1cccc(C)c1NC(=O)CCCC(=O)CC(=O)/C=C/c1ccccc1`: the GI50 in the assay with K562, in the assay with A498, in the assay with CCRF-CEM, in the assay with UO-31, in the assay on CAKI-1 and in the assay on ACHN was > 100 µM (inactive) throughout. The GI50 in the assay with HCT-116 is > 100 µM (inactive); with RXF 393 it was > 100 µM (inactive); in the assay with UACC-257, > 100 µM (inactive); in the assay on SF-539, > 100 µM (inactive); in the assay on HOP-92, > 100 µM (inactive); in the assay on HCT-15, over 100 µM.

Regarding `Cc1ccc2nc(/C(=C/c3ccc(/C=C(\NC(=O)c4ccccc4)c4nc5ccc(C)cc5[nH]4)c(C)c3)NC(=O)c3ccccc3)[nH]c2c1`, the GI50 with K562 is 0.785 µM (active); in the assay on A498, 11.4 µM (inactive); in the assay with CCRF-CEM, 3.02 µM (inactive); in the assay with UO-31, 9.12 µM (inactive); in the assay on CAKI-1 it was 35.2 µM (inactive); with ACHN, 8.45 µM (inactive). The GI50 with HCT-116 is 18.1 µM (inactive); with SF-539, 10.2 µM (inactive); in the assay on HOP-92, 16.4 µM (inactive); in the assay with HCT-15, 3.13 µM.

As to `CCN(CC)c1ccc(/N=N\c2ccc(-c3nc4ccc[n+](C)c4s3)cc2)cc1`, the GI50 with K562 is 2.4 µM (inactive); in the assay on A498, 13.4 µM (inactive); in the assay on CCRF-CEM, 3.05 µM (inactive); in the assay on UO-31, 22.8 µM (inactive); in the assay on CAKI-1 it was 19.7 µM (inactive); in the assay with HCT-116, 3.53 µM (inactive). Further, the GI50 in the assay on RXF 393 is > 10 µM (inactive); with UACC-257 it was 5.01 µM (inactive); with SF-539, 11 µM (inactive); in the assay with HOP-92, 10.6 µM (inactive); with HCT-15, 16.7 µM.

For `C#CCC[C@@H]1O[C@@]1(C)CC/C=C(\C)CC/C=C/C=O`, the GI50 is 22.6 µM (inactive) in the assay with K562; 23.3 µM (inactive) in the assay on CCRF-CEM; 35.8 µM (inactive) in the assay with UO-31; 50.1 µM (inactive) with ACHN; 40.6 µM (inactive) with RXF 393; 23.6 µM (inactive) in the assay with UACC-257. Besides, the GI50 in the assay on SF-539 is 18.2 µM (inactive); in the assay with HOP-92, 28.5 µM (inactive); in the assay with HCT-15, 35 µM.

Consider `CN(C)CCC1(C2=CCCC2)CC/C(=C\c2ccc3c(c2)OCO3)C1=O` (stereo not drawn), for which the GI50 was 11.5 µM (inactive) with K562; 12.2 µM (inactive) in the assay on A498; 16 µM (inactive) with CCRF-CEM; 7.52 µM (inactive) in the assay on UO-31; 16.1 µM (inactive) in the assay with ACHN; 13.2 µM (inactive) in the assay on HCT-116. For the same molecule, the GI50 with RXF 393 was 9.14 µM (inactive); with UACC-257, 15.5 µM (inactive); with SF-539, 16 µM (inactive); in the assay on HCC 2998, 15.8 µM (inactive); in the assay with HOP-92, 11.4 µM (inactive); in the assay on HCT-15 it was 13.9 µM.
